For 61 molecules, IC50 and inhibition results are on record in patent US20250296938A1, “Compounds that Interact with the Ras Superfamily for the Treatment of Cancers, Inflammatory Diseases, Rasopathies, and Fibrotic Disease” (SHY Therapeutics, LLC, priority 2018, published 2025).

By IC50 is commonly meant the concentration at which inhibition is half-maximal.

This assay concerns MIA PaCa-2 pancreatic cancer cell line. Kind of assay: Cell proliferation assay (DAPI). Type of assay: cell-based. Conditions: Homo sapiens; for inhibition at 10 µM: read-out: % Inhibition of cell proliferation, MIA PaCa-2 % inh. On the procedure: Cell lines: Human NSCLC cells NCI-H1975 and NCI-H1299, and tumor-derived pancreatic cancer cell lines Panc-1, MIA-PACA2, and BxPC3, were all purchased from American Type Culture Collection and grown in complete RPMI medium (BxPC3, NCI-H1975 and NCI-H1299) or DMEM-High Glucose (Panc1 and MIA-PaCa-2), supplemented with penicillin (100 U/mL), streptomycin (100 μg/mL), and 10% heat-inactivated FBS at 37° C. in a humidified incubator with 5% CO2.
Method: Cells were plated at 2000 to 5000 cells/well density in 96-wells plate and cultured ON. Small molecules to be tested were added to the cells in the final concentration of 10 µM in the presence of 0.3% DMSO and 10% FBS, and incubated for 2-4 days at 37° C. in a humidified incubator with 5% CO2. For IC50 value determination, serial dilutions of compounds were added to cells under the same conditions.
Assay: At the end of the incubation period, cell cultures were fixed with a 50-50 mixture (v/v) acetone-methanol for 10 minutes at −20° C., followed by rehydration in PBS for 10 minutes at room temperature. DNA total content was determined by staining cells with DAPI (1 ug/ml) in PBS for 10 minutes at room temperature, followed by 3 washes with PBS. After staining, DAPI fluorescence was recorded (358 nm excitation/461 nm emission) with the 96-well plate reader Molecular Devices Spectramax M3; degree of small molecule-dependent proliferation inhibition was calculated from raw data.

Like-named read-outs stand apart in the source and are kept apart here.

`COCCCNc1nc(-c2nccn2C)nc2sc(-c3ccn(C)n3)c(-c3ccc(OC)cc3)c12` [drawing 553] showed an IC50 (MIA PaCa-2) of over 1000 nM. Also, for the setting “2-4 days, MIA PaCa-2”, the inhibition at 10 µM is 76 to 100%.
The corresponding values for `COCC(C)Nc1nc(-c2nccn2C)nc2sc(-c3ccn(C)n3)c(-c3ccc(OC)cc3)c12` (centres unmarked) [drawing 554] are over 1000 nM and 76 to 100%.
For `COc1ccc(-c2c(-c3ccn(C)n3)sc3nc(-c4nccn4C)nc(N4CCC(OC)C4)c23)cc1` (centres unmarked) [drawing 555] the same measures were over 1000 nM and 76 to 100%.
With `COC1CCN(c2nc(-c3nccn3C)nc3sc(-c4ccccc4Cl)c(-c4cscn4)c23)C1` (centres unmarked) [drawing 557], under “2-4 days, MIA PaCa-2”, the inhibition at 10 µM lay within 76 to 100%.
Molecule `COc1cccc(-c2sc3nc(-c4nccn4C)nc(N4CCC(OC)C4)c3c2-c2cscn2)c1` (centres unmarked) [drawing 559] yielded a concentration for half-maximal inhibition (IC50) (MIA PaCa-2) of over 1000 nM. For the same molecule, the inhibition at 10 µM (2-4 days, MIA PaCa-2) lay within 76 to 100%.
On to `COCCNc1nc(-c2nccn2C)nc2sc(-c3cc(OC)ccc3Cl)c(-c3ccc(OC)cc3)c12` [drawing 563], for which the IC50 (MIA PaCa-2) is over 1000 nM. Besides, the inhibition at 10 µM (2-4 days, MIA PaCa-2) was 76 to 100%.
Turning to `COCCNc1nc(-c2cn(C)cn2)nc2sc(-c3cccc(OC)c3Cl)c(-c3ccc(OC)cc3)c12` [drawing 565], the inhibition at 10 µM (2-4 days, MIA PaCa-2) lay within 76 to 100%.
Still for that read-out and setting: as for `COCCNc1nc(-c2cn(C)cn2)nc2sc(-c3cc(OC)ccc3Cl)c(-c3ccc(OC)cc3)c12` [drawing 566], the figure is 76 to 100%.
For the molecule `COCCNc1nc(-c2nccn2C)nc2sc(-c3cc(OC)ccc3Cl)c(-c3ccccc3)c12` [drawing 568], the half-maximal inhibitory concentration (IC50) (MIA PaCa-2) is over 1000 nM. Also, the inhibition at 10 µM (2-4 days, MIA PaCa-2) fell in the range of 76 to 100%.
With `COc1cc(-c2sc3nc(-c4nccn4C)nc(N4CCC(OC)C4)c3c2-c2ccccc2)ccn1` (centres unmarked) [drawing 569], the inhibition at 10 µM (2-4 days, MIA PaCa-2) is 76 to 100%.
Regarding `COC1CCN(c2nc(-c3nccn3C)nc3sc(-c4ccnn4C)c(-c4ccccc4)c23)C1` (centres unmarked) [drawing 570], under “2-4 days, MIA PaCa-2”, the inhibition at 10 µM was 26 to 50%.
On the same count and under the same terms, as for `COC1CCN(c2nc(-c3nccn3C)nc3sc(-c4cccnc4)c(-c4ccccc4)c23)C1` (centres unmarked) [drawing 571], the figure is 76 to 100%; as for `COc1ccc(-c2sc3nc(-c4nccn4C)nc(N4CCC(OC)C4)c3c2-c2ccccc2)cn1` (centres unmarked) [drawing 572], 76 to 100%.
On the same count and under the same terms, the same measure for `COc1ncccc1-c1sc2nc(-c3nccn3C)nc(N3CCC(OC)C3)c2c1-c1ccccc1` (centres unmarked) [drawing 573]: 76 to 100%; for `COC1CCN(c2nc(-c3nccn3C)nc3sc(-c4cnc(C5CC5)o4)c(-c4ccccc4)c23)C1` (centres unmarked) [drawing 574]: 76 to 100%.
On the same count and under the same terms, as for `COCCn1cc(-c2sc3nc(-c4nccn4C)nc(N4CCC(OC)C4)c3c2-c2ccccc2)cn1` (centres unmarked) [drawing 575], the figure is 76 to 100%; as for `COC1CCN(c2nc(-c3nccn3C)nc3sc(-c4ccncc4C)c(-c4ccccc4)c23)C1` (centres unmarked) [drawing 576], 76 to 100%; as for `COC1CCN(c2nc(-c3nccn3C)nc3sc(-c4cnn(C)c4)c(-c4ccccc4)c23)C1` (centres unmarked) [drawing 577], 76 to 100%.
For `COC1CCN(c2nc(-c3nccn3C)nc3sc(-c4ccc(CO)cc4)c(-c4ccccc4)c23)C1` (centres unmarked) [drawing 578], the inhibition at 10 µM (2-4 days, MIA PaCa-2) was 76 to 100%.
For the molecule `COC1CCN(c2nc(-c3nccn3C)nc3sc(-c4ccc(N)nc4C)c(-c4ccccc4)c23)C1` (centres unmarked) [drawing 579], the inhibition at 10 µM (2-4 days, MIA PaCa-2) is 76 to 100%.
Take `COC1CCN(c2nc(-c3nccn3C)nc3sc(-c4ccccc4CO)c(-c4ccccc4)c23)C1` (centres unmarked) [drawing 580]: the inhibition at 10 µM (2-4 days, MIA PaCa-2) was 76 to 100%.
With `COc1nscc1-c1sc2nc(-c3nccn3C)nc(N3CCC(OC)C3)c2c1-c1ccccc1` (centres unmarked) [drawing 581], the inhibition at 10 µM (2-4 days, MIA PaCa-2) lay within 76 to 100%.
For the molecule `COC1CCN(c2nc(-c3nccn3C)nc3sc(-c4ccnc(N(C)C)c4)c(-c4ccccc4)c23)C1` (centres unmarked) [drawing 582], where the note is “2-4 days, MIA PaCa-2”, the inhibition at 10 µM lay within 76 to 100%.
As to `COC1CCN(c2nc(-c3nccn3C)nc3sc(Br)c(-c4ccccc4)c23)C1` (centres unmarked) [drawing 583], the inhibition at 10 µM (2-4 days, MIA PaCa-2) lay within 76 to 100%.
The same measure, in the same setting: the same measure for `COc1ccc(-c2c(-c3cccc(OC)c3F)sc3nc(-c4nccn4C)nc(N4CCC(OC)C4)c23)cc1` (centres unmarked) [drawing 584]: 76 to 100%.
In the case of `COCC1CN(c2nc(-c3nccn3C)nc3sc(-c4cccc(OC)c4F)c(-c4ccc(OC)cc4)c23)C1` [drawing 585], the inhibition at 10 µM (2-4 days, MIA PaCa-2) is 76 to 100%.
For the molecule `COc1cccc(-c2sc3nc(-c4nccn4C)nc(N4CCC(OC)C4)c3c2-c2ccccc2)c1F` (centres unmarked) [drawing 586], for the setting “2-4 days, MIA PaCa-2”, the inhibition at 10 µM was 76 to 100%.
Still for that read-out and setting: as for `COc1c(O)nc(-c2ccccn2)nc1Oc1cnn(C)c1` [drawing 587], the figure is 0%; as for `COc1c(O)nc(-c2ccccn2)nc1Oc1ccc2ncccc2c1` [drawing 588], 1 to 25%.
For `COc1c(O)nc(-c2ccccn2)nc1Oc1cccnc1` [drawing 589], where the note is “2-4 days, MIA PaCa-2”, the inhibition at 10 µM stood at 0%.
In the case of `COc1cccc(Oc2nc(-c3ccccn3)nc(O)c2OC)c1` [drawing 590], where the note is “2-4 days, MIA PaCa-2”, the inhibition at 10 µM amounted to 0%.
For the molecule `COc1ccc(Oc2nc(-c3ccccn3)nc(O)c2OC)cc1` [drawing 591], for the setting “2-4 days, MIA PaCa-2”, the inhibition at 10 µM lay in the range of 26 to 50%.
On the same count and under the same terms, as for `COCCc1ccc(Oc2nc(-c3ccccn3)nc(O)c2OC)cc1` [drawing 592], the figure is 76 to 100%; as for `COc1c(O)nc(-c2ccccn2)nc1Oc1ccccc1` [drawing 593], 76 to 100%; as for `O=C(c1nc(-c2ccccn2)nc(O)c1O)N1CCc2ccccc2C1` [drawing 594], 1 to 25%.
Same read-out and setting: as for `O=C(c1nc(-c2ccccn2)nc(O)c1O)N1CCOCC1` [drawing 595], the figure is 0%; as for `O=C(NCc1ccccc1)c1nc(-c2ccccn2)nc(O)c1O` [drawing 597], 26 to 50%.
On the same count and under the same terms, as for `O=C(c1nc(-c2ccccn2)nc(O)c1O)N1CCCC1` [drawing 598], the figure is 1 to 25%; as for `O=C(NC1CCCC1)c1nc(-c2ccccn2)nc(O)c1O` [drawing 599], 26 to 50%; as for `CC(C)CN(C)C(=O)c1nc(-c2ccccn2)nc(O)c1O` [drawing 600], 0%.
Consider `CC(C)CNC(=O)c1nc(-c2ccccn2)nc(O)c1O` [drawing 601], for which, where the note is “2-4 days, MIA PaCa-2”, the inhibition at 10 µM stood at 0%.
The same measure, in the same setting: the same measure for `COCCN(C)C(=O)c1nc(-c2ccccn2)nc(O)c1O` [drawing 602]: 0%.
For the molecule `O=C(NC1CCC1)c1nc(-c2ccccn2)nc(O)c1O` [drawing 603], the inhibition at 10 µM (2-4 days, MIA PaCa-2) was 0%.
Still for that read-out and setting: as for `CC(C)NC(=O)c1nc(-c2nccn2C)nc(O)c1O` [drawing 604], the figure is 26 to 50%; as for `CCN(CC)C(=O)c1nc(-c2nccn2C)nc(O)c1O` [drawing 605], 1 to 25%.
Still for that read-out and setting: as for `Cn1ccnc1-c1nc(O)c(O)c(C(=O)N2CCCC2)n1` [drawing 606], the figure is 0%; as for `Cn1ccnc1-c1nc(O)c(O)c(C(=O)NC2CCCC2)n1` [drawing 607], 0%.
Still for that read-out and setting: as for `Cn1ccnc1-c1nc(O)c(O)c(C(=O)N2CCCCC2)n1` [drawing 608], the figure is 1 to 25%.
As to `Cn1ccnc1-c1nc(O)c(O)c(C(=O)NC2CCC2)n1` [drawing 609], the inhibition at 10 µM (2-4 days, MIA PaCa-2) was 1%.
The same measure, in the same setting: as for `COC(=O)c1nc(-c2nccn2C)nc(O)c1O` [drawing 610], the figure is 0%; as for `COc1nc(-c2ccccn2)nc(Nc2cnn(C)c2)c1OC` [drawing 611], 1 to 25%.
On the same count and under the same terms, as for `COCCn1cc(Nc2nc(-c3ccccn3)nc(OC)c2OC)cn1` [drawing 612], the figure is 26 to 50%; as for `COC1CCN(c2nc(-c3nccn3C)nn3cc(-c4ccccc4)c(-c4ccccc4)c23)C1` (centres unmarked) [drawing 613], 76 to 100%.
As for `COc1c(O)nc(-c2ccccn2)nc1Oc1ccc(C(=O)N(C)C)cc1` [drawing 614], for the setting “MIA PaCa-2 (Table 5A)”, the inhibition at 10 µM was in the range of 1 to 25%.
For the molecule `COc1c(O)nc(-c2ccccn2)nc1Nc1ccccc1` [drawing 615], for the setting “MIA PaCa-2 (Table 5A)”, the inhibition at 10 µM was in the range of 76 to 100% and the IC50 was over 1000 nM.
The corresponding values for `CCn1cc(Nc2nc(-c3ccccn3)nc(O)c2OC)cn1` [drawing 616] are 0% and over 1000 nM.
For `CCOc1cccc(Nc2nc(-c3ccccn3)nc(O)c2OC)c1` [drawing 617] the same measures were 76 to 100% and over 1000 nM.
Take `COc1cccc(-c2sc3nc(-c4nccn4C)nc(NC4CCC(OC)C4)c3c2-c2ccccc2)c1F` (centres unmarked) [drawing 618]: under “MIA PaCa-2 (Table 5A)”, the inhibition at 10 µM lay within 76 to 100% and the 50% inhibitory concentration (IC50) was 750 to 1000 nM.
The corresponding values for `COc1cccc(-c2sc3nc(-c4nccn4C)nc(N[C@@H]4CC[C@H](OC)C4)c3c2-c2ccccc2)c1F` [drawing 619] are 76 to 100% and 750 to 1000 nM.
The corresponding values for `COC1CCC(Nc2nc(-c3nccn3C)nc3sc(-c4cccc(O)c4F)c(-c4ccccc4)c23)C1` (centres unmarked) [drawing 620] are 76 to 100% and over 1000 nM.
The corresponding values for `COc1c(F)cccc1-c1sc2nc(-c3nccn3C)nc(NC3CCC(OC)C3)c2c1-c1ccccc1` (centres unmarked) [drawing 621] are 76 to 100% and 750 to 1000 nM.
